The values below come from patent publication US20190328721A1, “METHOD OF ACTIVATING DENDRITIC CELLS” (KOREA INSTITUTE OF SCIENCE AND TECHNOLOGY, priority 2018, published 2019).

In test [1] the test system is OT-1 T cells. Nature of the test: Co-culture of OT-1 T cells with phagocytes isolated from B16F10-Ova-bearing mice (IFN-γ). Type of test: in vivo. The method, then: In addition, the expression of IFN-γ in OT-1 T cells co-cultured with macrophages and dendritic cells isolated from the tumor-draining lymph nodes and the tumor tissues in the B16F10-Ova cancer model mice was assessed using IFN-γ ELISA kit (R&D Systems, Inc, USA). It was confirmed that the amount of IFN-γ was increased when the dendritic cells isolated from the tumor-draining lymph nodes and the tumor tissues were co-cultured with OT-1 T cells (FIG. 14D). However, there was no change in the amount of IFN-γ when macrophages and OT-1 T cells were co-cultured.
The present inventors investigated whether the combined administration of Y27632 and doxorubicin induces immunity enhancement through CD8 T cells. For this purpose, dendritic cells isolated from tumor-draining lymph nodes of B16F10-Ova-bearing cancer model mice were co-cultured with OT-1 T cells, and then the amount of IFN-γ was measured by IFN-γ ELISA kit (R&D Systems, USA). […] In addition, it was confirmed that the amount of IFN-γ-positive T cells increased when the dendritic cells derived from mice administered with the combined administration were co-cultured with OT-1 T cells (FIG. 18G).

In another test the test system is B16F10-Ova. Nature of the test: B16F10-Ova tumor model, Y27632 combined with a chemotherapeutic. As to conditions: doxorubicin 5 mg/kg, Y27632 10 mg/kg. It counts as in vivo, mice. The method, then:
Specifically, tumor suppression was examined by administering 5 mg/kg of doxorubicin and 10 mg/kg of Y27632 alone or in combination to B16F10-Ova-bearing tumor model mice prepared as in Example 2-1. Doxorubicin was administered three times at intervals of 3 days from the 8th day after the injection of cancer cells, and Y27632 was administered at a dose of 10 mg/kg continuously for two consecutive days via intravenous injection followed by a day of rest as a cycle, followed by 3 cycles of 3-day intervals (FIG. 18A). The mice were sacrificed on the 20th day after the injection of cancer cells, the tumor tissue was excised, and ex vivo images were taken and the tumor tissues were weighed. Before the sacrifice of the mice, the tumor volumes over time were calculated as described above using calipers at intervals of 3 days from the 8th day after the injection of the cancer cells.
In order to confirm whether CD8^+ T cells infiltrates into tumor tissues, tumor tissues excised from an experimental animal were sectioned and subjected to fluorescence immunohistochemistry using anti-CD8 antibodies.
First, to determine the cisplatin therapeutic concentration, a B16F10-Ova tumor model was constructed in a nude mouse lacking T cell immunity and then an experiment was conducted to confirm the concentration of cisplatin having an anticancer effect similar to that of doxorubicin at 5 mg/kg. […] Thus, in order to evaluate the therapeutic effect of cisplatin and the ROCK inhibitor Y27632 in the B16F10-Ova-bearing tumor model, 3 mg/kg of cisplatin was administered according to the administration schedule shown in FIG. 18A.

A further test relates to CD103 DCs. Nature of the test: Phagocytosis of cancer cells by dendritic cells excised from tumor tissues. It counts as in vivo. As to conditions: compared with CD103 DCs from control mice. The source says:
The present inventors excised dendritic cells from tumor tissues and analyzed the phagocytosis of dendritic cells against cancer cells in vitro using the same method as described in Example 1-1.

A further test has as its system MMTV/Neu mice tumors. Nature of the test: Spontaneous cancer development model. It counts as in vivo. The procedure:
The survival rate was recorded over up to 100 days. When the size of tumor was over 2,500 mm^3, the animal was euthanized (FIG. 20C).
Specifically, fluorescence immunohistochemical analysis was performed using anti-CD8 antibodies in the cancer tissues after the end of the experiment.
Accordingly, the present inventors investigated whether the combination of the drugs can increase the anti-cancer immunity even in the spontaneous cancer development model. […] After completion of the experiment, the present inventors isolated the spleen cells and treated with peptide against rat-Neu, an antigen expressed in the cancer of the spontaneous cancer development model, and after 48 hours, the culture supernatant was collected and IFN-γ was quantified using an ELISA kit (R&D Systems, Inc, USA).

Test [2] concerns OT-1 T cells. Nature of the test: Proliferation of injected CFSE-stained OT-1 T cells in B16F10-Ova-bearing mice. It counts as in vivo. As to conditions: 3 days after injection. The method, then:
Specifically, Y27632 was administered to the B16F10-Ova-bearing cancer model mice according to the administration schedule described in Example 2-1, and OT-1 T cells stained with CFSE (carboxyfluorescein succinimidyl ester, Thermo Fisher Scientific, Inc., USA) were injected into the cancer model mice and the degree of proliferation of T cells was confirmed 3 days later (FIG. 14A).

A further test has as its system CT26.CL25 cell line. Nature of the test: CT26.CL25 tumor model in immunodeficient nude mice. It counts as in vivo. The following applies: 10 mg/kg intravenous. The method, then:
Specifically, immunodeficient nude mice were subcutaneously injected with 1×10^6 cells of CT26.CL25 cell line in order to induce cancer. After the 11 days from the injection of the cancer cells, tumor size was 50-100 mm^3, and Y27632 was administered at a dose of 10 mg/kg continuously for two consecutive days by intravenous injection, followed by a day of rest as a cycle, followed by 3 cycles of 3-day intervals (FIG. 9A). As a negative control group, only phosphate buffered saline (PBS) was administered. The tumor tissues were excised and an ex vivo image was taken. In addition, before the mice were sacrificed, the change in body weight was measured at intervals of 3 days from the 11th day of cancer cell injection in the case of CT26.CL25 cancer model, and the length (L) and width (W) were measured, and the volume of the tumor tissues was measured using the equation described in Example 2-1 (FIG. 9B).

A further test deals with CT26.CL25 cells. Nature of the test: Anti-cancer immune memory (tumor removal and re-injection). The following applies: 10 mg/kg intravenous; compared with PBS control. It counts as in vivo, Balb/c wild-type mice. The procedure:
To confirm whether the ROCK inhibitor induces anti-cancer immune memory, CT26.CL25 cells (1×10^6 cells) were injected into the right flank of Balb/c wild-type mice to induce cancer, and then 10 mg/kg of Y27632 was administered continuously for two consecutive days via intravenous injection, followed by a day of rest as a cycle, followed by 3 cycles of 3-day intervals. After 22nd days from the day of cancer injection, the induced tumor was removed by surgery. One week later, the same cancer cells (7×10^6 cells) were injected to the other flank and the growth of tumor was investigated (FIG. 12A).

The mark [3] stands for this setting: from tumor-draining lymph nodes.

Structures are written as SMILES.

Take `C[C@@H](N)[C@H]1CC[C@H](C(=O)Nc2ccncc2)CC1` [Y27632]: the “amount of IFN-γ, dendritic cells co-cultured with OT-1 T cells” value with OT-1 T cells [1] (dendritic cells from tumor-draining lymph nodes and tumor tissues) is listed as “increased”. The “T cell priming (amount of IFN-γ), dendritic cells co-cultured with OT-1 T cells” value in the test on OT-1 T cells [1] (dendritic cells from tumor-draining lymph nodes, doxorubicin study) is given as “increased”. For the same compound, in the test with OT-1 T cells [1] (setting [3]), the “proportion of IFN-γ-positive T cells, dendritic cells co-cultured” value is given as “increased” and the “proportion of IFN-γ-positive T cells, macrophages co-cultured” value is listed as “did not affect”. The “amount of IFN-γ, macrophages co-cultured with OT-1 T cells” value in the test on OT-1 T cells [1] (mouse, in vivo) was “no change”. For the same compound, in the test on B16F10-Ova, the “complete regression of the tumor” value is listed as “not observed” and the “infiltration of CD8+ T cells into tumor tissues” value is “slight infiltration”. In addition, the “phagocytosis against cancer cells of CD103 DCs isolated from treated mice” value in the test on CD103 DCs is “significantly enhanced”. Besides, the “anti-cancer immunity (IFN-γ of spleen cells treated with rat-Neu peptide)” value in the test on MMTV/Neu mice tumors (48 hours) was “increased”. Moreover, the “CD8+ T cells in tumor tissues (infiltration)” value in the test with MMTV/Neu mice tumors (anti-CD8 fluorescence immunohistochemistry) is reported as “some T cell infiltration”. In the test with OT-1 T cells [2], the “proliferation of OT-1 T cells” value was “significantly increased”. Further, the “anti-cancer effect (tumor volume) in nude mice lacking immune function” value in the test with CT26.CL25 cell line is given as “only a limited anti-cancer effect”. In the test on CT26.CL25 cells, the “proportion of tumor-free mice after re-injection of cancer cells” value was “significantly increased”.
